Test results: ChEMBL document CHEMBL3885861, “Open TG-GATES”

Species: Rattus norvegicus
Assay: Open TG-GATES - Regimen: Daily Repeat
Assay type: toxicity, organism-based, Sprague-Dawley
Design: regimen Daily Repeat, gender Male, age 6 weeks
Conditions: in vivo, po, route gavage; for gamma-GTP / ALP / ALT / AST / BUN / CRE / Ca / Cl / DBIL / GLC / IP / K / LDH / Na / PL / RALB / TBIL / TC / TG / TP: tissue Plasma; for APTT / Bas / Eos / Fbg / Ht / Lym / MCH / MCHC / MCV / Mono / Neu / PT / Plat / RBC / Ret / WBC: tissue Blood; for KIDNEY_L / KIDNEY_R / KIDNEY_TOTAL: tissue Kidney; for LIVER: tissue Liver
[1] = 10 mg/kg, 72 h, dose level Low, time 3 day
[2] = 10 mg/kg, […], dose level Low, time 7 day
[3] = 10 mg/kg, […], dose level Low, time 14 day
[4] = 10 mg/kg, […], dose level Low, time 28 day

Question: What does the source list for `Cc1cccc(Nc2cc(Cl)nc(SCC(=O)O)n2)c1C` [PIRINIXIC ACID]?
Answer: gamma-GTP (0 mg/kg, […], dose level Control, time 28 day): 1 IU/L; TERMINAL_BW [1]: 232.6 g; APTT [1]: 15.8 s; Bas [1]: 0%; Eos [1]: 1%; Fbg [1]: 215.2 mg/dL; Ht [1]: 39%; Lym [1]: 76.6%; MCH [1]: 21.6 pg; MCHC [1]: 34%; MCV [1]: 63.6 fL; Mono [1]: 2.6%; Neu [1]: 19.2%; PT [1]: 12.5 s; Plat [1]: 111.3 x10_4/uL; RBC [1]: 612.8 x10_4/ul; Ret [1]: 6.1%; WBC [1]: 76.7 x10_2/uL; KIDNEY_L [1]: 1 g; KIDNEY_R [1]: 1 g; KIDNEY_TOTAL [1]: 1.9 g; LIVER [1]: 14.4 g; ALP [1]: 2039.8 IU/L; ALT [1]: 60.6 IU/L; AST [1]: 81.6 IU/L; BUN [1]: 14.6 mg/dL; CRE [1]: 0.2 mg/dL; Ca [1]: 10.8 mg/dL; Cl [1]: 106 meq/L; DBIL [1]: 0.02 mg/dL; GLC [1]: 210 mg/dL; IP [1]: 7.5 mg/dL; K [1]: 4.1 meq/L; LDH [1]: 90 IU/L; Na [1]: 143.8 meq/L; PL [1]: 111.8 mg/dL; RALB [1]: 2.7 g/dL; TBIL [1]: 0.03 mg/dL; TC [1]: 55 mg/dL; TG [1]: 31.2 mg/dL; TP [1]: 5.4 g/dL; gamma-GTP [1]: 1.2 IU/L; TERMINAL_BW [2]: 276.5 g; TERMINAL_BW [3]: 313.7 g; TERMINAL_BW [4]: 373.2 g; APTT [2]: 17.8 s; Bas [2]: 0%; Eos [2]: 1%; Fbg [2]: 262.8 mg/dL; Ht [2]: 38.4%; Lym [2]: 76.4%; MCH [2]: 21.6 pg; MCHC [2]: 34.9%; MCV [2]: 61.8 fL; Mono [2]: 3.2%; Neu [2]: 19.2%; PT [2]: 12.6 s; Plat [2]: 130.2 x10_4/uL; RBC [2]: 621.6 x10_4/ul; Ret [2]: 5.9%; WBC [2]: 93.9 x10_2/uL; APTT [3]: 17.3 s; Bas [3]: 0.2%; Eos [3]: 1%; Fbg [3]: 262.8 mg/dL; Ht [3]: 38.9%; Lym [3]: 78.8%; MCH [3]: 20.7 pg; MCHC [3]: 35.3%; MCV [3]: 58.6 fL; Mono [3]: 2.8%; Neu [3]: 16%; PT [3]: 12.5 s; Plat [3]: 132.4 x10_4/uL; RBC [3]: 664.6 x10_4/ul; Ret [3]: 4.7%; WBC [3]: 110.5 x10_2/uL; APTT [4]: 16.3 s; Bas [4]: 0%; Eos [4]: 1%; Fbg [4]: 251.2 mg/dL; Ht [4]: 39.5%; Lym [4]: 76.8%; MCH [4]: 19.7 pg; MCHC [4]: 35.9%; MCV [4]: 54.9 fL; Mono [4]: 3.6%; Neu [4]: 18%; PT [4]: 12.2 s; Plat [4]: 118 x10_4/uL; RBC [4]: 720.4 x10_4/ul; Ret [4]: 2.7%; WBC [4]: 97.4 x10_2/uL; KIDNEY_L [2]: 1.2 g; KIDNEY_R [2]: 1.1 g; KIDNEY_TOTAL [2]: 2.3 g; KIDNEY_L [3]: 1.3 g; KIDNEY_R [3]: 1.3 g; KIDNEY_TOTAL [3]: 2.6 g; KIDNEY_L [4]: 1.4 g; KIDNEY_R [4]: 1.4 g; KIDNEY_TOTAL [4]: 2.9 g; LIVER [2]: 20.3 g; LIVER [3]: 22.8 g; LIVER [4]: 26.4 g; ALP [2]: 1837.8 IU/L; ALT [2]: 49.2 IU/L; AST [2]: 65.4 IU/L; BUN [2]: 18.4 mg/dL; CRE [2]: 0.2 mg/dL; Ca [2]: 11.2 mg/dL; Cl [2]: 102.4 meq/L; DBIL [2]: 0.014 mg/dL; GLC [2]: 202.6 mg/dL; IP [2]: 7.2 mg/dL; K [2]: 4.2 meq/L; LDH [2]: 98.8 IU/L; Na [2]: 142.2 meq/L; PL [2]: 148.6 mg/dL; RALB [2]: 3 g/dL; TBIL [2]: 0.026 mg/dL; TC [2]: 77.6 mg/dL; TG [2]: 60.4 mg/dL; TP [2]: 6.2 g/dL; gamma-GTP [2]: 1 IU/L; ALP [3]: 1550.8 IU/L; ALT [3]: 45 IU/L; AST [3]: 64 IU/L; BUN [3]: 17.4 mg/dL; CRE [3]: 0.2 mg/dL; Ca [3]: 10.5 mg/dL; Cl [3]: 103.2 meq/L; DBIL [3]: 0.016 mg/dL; GLC [3]: 206.8 mg/dL; IP [3]: 7.4 mg/dL; K [3]: 3.8 meq/L; LDH [3]: 97.2 IU/L; Na [3]: 142.2 meq/L; PL [3]: 144.2 mg/dL; RALB [3]: 2.9 g/dL; TBIL [3]: 0.032 mg/dL; TC [3]: 67.2 mg/dL; TG [3]: 53.6 mg/dL; TP [3]: 6.2 g/dL; gamma-GTP [3]: 1.2 IU/L; ALP [4]: 1413.8 IU/L; ALT [4]: 50.4 IU/L; AST [4]: 63.6 IU/L; BUN [4]: 17.6 mg/dL; CRE [4]: 0.2 mg/dL; Ca [4]: 11 mg/dL; Cl [4]: 103.8 meq/L; DBIL [4]: 0.014 mg/dL; GLC [4]: 188.6 mg/dL; IP [4]: 7.4 mg/dL; K [4]: 3.7 meq/L; LDH [4]: 115 IU/L; Na [4]: 143 meq/L; PL [4]: 155.2 mg/dL; RALB [4]: 3.1 g/dL; TBIL [4]: 0.048 mg/dL; TC [4]: 79.4 mg/dL; TG [4]: 63.4 mg/dL; TP [4]: 6.8 g/dL
